pIC50: −log10 of the molar value. Activity calls are given as the source filed them. No cut-off for these calls is given here.
Assays:
MV4-11 [1] = assay: Antiproliferative activity against FLT3-ITD-positive human MV4-11 cells assessed as reduction in cell growth after 72 hrs by MTT assay; format: functional, cell-based; conditions: MV4-11, 72 h
[2] = target: Tyrosine-protein kinase JAK2 (Homo sapiens, UniProt O60674); assay: Inhibition of human JAK2 (808 to end residues) assessed as residual activity at 100 nM using KTFCGTPEYLAP as substrate after 40 mins in presence of [gamma33P]-ATP by scintillation counting based radiometric assay relative to control
[3] = target: T1, Tyrosine-protein kinase JAK3 (Homo sapiens) (UniProt P52333); assay: Inhibition of human JAK3 (781 to end residues) assessed as residual activity at 100 nM using GGEEEEYFELVKK as substrate after 40 mins in presence of [gamma33P]-ATP by scintillation counting based radiometric assay relative to control
T1 sequence (whole entry): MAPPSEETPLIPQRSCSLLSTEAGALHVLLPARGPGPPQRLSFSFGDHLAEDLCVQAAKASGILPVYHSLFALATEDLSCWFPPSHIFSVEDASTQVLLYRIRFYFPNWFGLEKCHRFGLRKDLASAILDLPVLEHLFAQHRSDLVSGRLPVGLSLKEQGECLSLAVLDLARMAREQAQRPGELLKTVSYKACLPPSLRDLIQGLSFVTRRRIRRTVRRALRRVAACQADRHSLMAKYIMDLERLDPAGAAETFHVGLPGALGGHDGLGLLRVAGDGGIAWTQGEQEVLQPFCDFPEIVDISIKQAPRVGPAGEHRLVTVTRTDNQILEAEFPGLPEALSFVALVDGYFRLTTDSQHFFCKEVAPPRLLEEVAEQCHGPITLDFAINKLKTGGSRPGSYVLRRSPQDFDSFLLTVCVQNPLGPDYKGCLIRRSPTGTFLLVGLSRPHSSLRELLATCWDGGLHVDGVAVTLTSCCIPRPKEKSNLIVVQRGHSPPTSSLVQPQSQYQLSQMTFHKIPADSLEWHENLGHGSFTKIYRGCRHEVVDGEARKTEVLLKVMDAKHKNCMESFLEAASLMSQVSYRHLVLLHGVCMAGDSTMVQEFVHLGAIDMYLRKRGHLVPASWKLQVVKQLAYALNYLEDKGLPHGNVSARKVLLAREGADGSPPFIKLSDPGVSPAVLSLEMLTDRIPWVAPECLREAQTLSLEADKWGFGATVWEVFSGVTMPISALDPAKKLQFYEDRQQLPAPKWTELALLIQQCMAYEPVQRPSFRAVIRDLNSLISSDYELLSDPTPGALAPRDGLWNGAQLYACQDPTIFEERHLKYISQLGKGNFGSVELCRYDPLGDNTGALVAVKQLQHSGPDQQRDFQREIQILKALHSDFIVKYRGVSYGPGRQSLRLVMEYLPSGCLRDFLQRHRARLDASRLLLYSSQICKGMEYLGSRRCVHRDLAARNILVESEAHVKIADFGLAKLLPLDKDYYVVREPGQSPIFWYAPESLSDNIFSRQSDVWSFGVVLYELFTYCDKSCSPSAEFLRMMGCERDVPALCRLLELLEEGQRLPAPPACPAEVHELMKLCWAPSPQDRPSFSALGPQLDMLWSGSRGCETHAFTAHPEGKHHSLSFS

[4] = AUC (0 to t) in Sprague-Dawley rat at 5 mg/kg, po measured up to 24 hrs by LC/MS/MS analysis; format: ADME, organism-based; design: dose 5 mg/kg, time < 24 hr, route oral; conditions: in vivo, 24 h
[5] = target: Tyrosine-protein kinase Lyn (Homo sapiens, UniProt P07948); assay: Inhibition of recombinant full length human LYN using poly(Glu, Tyr) 4:1 as substrate incubated for 40 mins in presence of [gamma33P]-ATP by scintillation counting based radiometry assay
JAK3/JAK1 [6] = target: T2, JAK3/JAK1 (Homo sapiens, UniProt P23458+P52333); assay: Inhibition of JAK1/JAK3 in human PBMC cells assessed as reduction in IL-2-induced STAT5 phosphorylation by flow cytometry; format: cell-based
MDA-MB-231 = assay: Antiproliferative activity against human MDA-MB-231 cells assessed as reduction in cell growth after 72 hrs by MTT assay; format: functional, cell-based
NCI-H460 = assay: Antiproliferative activity against human NCI-H460 cells assessed as reduction in cell growth after 72 hrs by MTT assay; format: functional, cell-based
JAK3/JAK1 [7] = target: T2, JAK3/JAK1; assay: Inhibition of JAK1/JAK3 in human THP-1 cells assessed as reduction in IL-4-induced STAT6 phosphorylation by flow cytometry; format: cell-based
Cytochrome P450 2C19 = Cytochrome P450 2C19 (Homo sapiens, UniProt P33261); assay: Inhibition of CYP2C19 (unknown origin); format: ADME
[8] = Half life in human liver microsomes; format: ADME, Microsome
[9] = Half life in mouse liver microsomes; format: ADME, Microsome
[10] = Half life in monkey liver microsomes; format: ADME, Macaca mulatta, Microsome; conditions: rhesus monkey
[11] = Intrinsic clearance in mouse liver microsomes; format: ADME, Microsome
MV4-11 [12] = assay: Inhibition of JAK2/FLT3 ITD mutant in human MV4-11 cells assessed as reduction in FLT3 phosphorylation after 2 hrs by Western blot analysis; format: cell-based
MV4-11 [13] = assay: Induction of cell cycle arrest in human MV4-11 cells assessed as accumulation at G2/M phase at 0.005 uM after 24 hrs by propidium iodide staining based flow cytometry analysis (reference value: 15.4%); format: functional
MV4-11 [14] = assay: Induction of cell cycle arrest in human MV4-11 cells assessed as accumulation at S phase at 0.01 uM after 24 hrs by propidium iodide staining based flow cytometry analysis (reference value: 30.11%); format: functional
MV4-11 [15] = assay: Induction of cell cycle arrest in human MV4-11 cells assessed as accumulation at S phase at 0.05 uM after 24 hrs by propidium iodide staining based flow cytometry analysis (reference value: 30.11%); format: functional
MV4-11 [16] = assay: Induction of apoptosis in human MV4-11 cells assessed as viable cells at 0.4 uM after 24 hrs by Annexin V FITC/PI staining based flow cytometry analysis (reference value: 96.3%); format: functional; conditions: MV4-11, 24 h, read-out: Activity
MV4-11 [17] = assay: Induction of apoptosis in human MV4-11 cells assessed as early apoptotic cells at 0.4 uM after 24 hrs by Annexin V FITC/PI staining based flow cytometry analysis (reference value: 2.14%); format: functional
MV4-11 [18] = assay: Induction of apoptosis in human MV4-11 cells assessed as late apoptotic cells at 0.4 uM after 24 hrs by Annexin V FITC/PI staining based flow cytometry analysis (reference value: 1.38%); format: functional
MV4-11 [19] = assay: Induction of apoptosis in human MV4-11 cells assessed as necrotic cells at 0.4 uM after 24 hrs by Annexin V FITC/PI staining based flow cytometry analysis (reference value: 0.18%); format: functional
MV4-11 [20] = assay: Antitumor activity against FLT3-ITD positive human MV4-11 cells xenografted in NOD/SCID mouse assessed as tumor growth inhibition at 60 mg/kg, po qd for 14 days measured every 2 days for 14 days by caliper method relative to control; format: functional; conditions: MV4-11, po, read-out: TGI
[21] = Toxicity in NOD/SCID mouse xenografted with human SET2 cells overexpressing JAK2 V617F mutant assessed as animal survival at 30 to 60 mg/kg, po qd for 18 days; format: organism-based; conditions: in vivo

T2 sequence (P23458 whole entry, one chain of several): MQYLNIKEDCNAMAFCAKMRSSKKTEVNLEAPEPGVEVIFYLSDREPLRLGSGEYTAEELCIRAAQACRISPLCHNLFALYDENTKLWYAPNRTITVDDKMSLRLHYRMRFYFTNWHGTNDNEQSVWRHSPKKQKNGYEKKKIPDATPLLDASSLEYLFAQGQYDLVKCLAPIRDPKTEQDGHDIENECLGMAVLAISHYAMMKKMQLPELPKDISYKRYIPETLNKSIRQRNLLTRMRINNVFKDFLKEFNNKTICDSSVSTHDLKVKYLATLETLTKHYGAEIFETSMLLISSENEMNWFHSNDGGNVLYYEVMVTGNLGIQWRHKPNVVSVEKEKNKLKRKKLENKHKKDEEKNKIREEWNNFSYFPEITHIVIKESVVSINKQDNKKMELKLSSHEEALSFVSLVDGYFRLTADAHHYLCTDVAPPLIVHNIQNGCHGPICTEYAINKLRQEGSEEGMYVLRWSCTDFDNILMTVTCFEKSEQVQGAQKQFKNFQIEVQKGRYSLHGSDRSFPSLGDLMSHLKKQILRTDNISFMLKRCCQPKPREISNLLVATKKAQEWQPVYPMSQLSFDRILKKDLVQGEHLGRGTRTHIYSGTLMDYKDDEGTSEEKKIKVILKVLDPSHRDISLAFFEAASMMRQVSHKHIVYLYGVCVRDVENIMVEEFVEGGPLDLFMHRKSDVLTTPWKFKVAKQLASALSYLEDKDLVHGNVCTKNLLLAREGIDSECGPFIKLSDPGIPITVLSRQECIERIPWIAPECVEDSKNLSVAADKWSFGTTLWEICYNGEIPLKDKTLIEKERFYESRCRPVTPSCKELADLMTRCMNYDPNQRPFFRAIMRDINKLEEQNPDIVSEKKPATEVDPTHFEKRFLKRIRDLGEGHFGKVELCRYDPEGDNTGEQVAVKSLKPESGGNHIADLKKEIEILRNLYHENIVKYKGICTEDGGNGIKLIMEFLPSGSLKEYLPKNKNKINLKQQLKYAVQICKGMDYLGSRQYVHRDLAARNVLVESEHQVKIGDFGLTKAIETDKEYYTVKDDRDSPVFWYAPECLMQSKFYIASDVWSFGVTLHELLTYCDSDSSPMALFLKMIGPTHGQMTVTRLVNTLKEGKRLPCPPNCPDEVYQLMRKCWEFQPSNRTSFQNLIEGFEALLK
Tyrosine-protein kinase JAK2, sequence (O60674 whole entry): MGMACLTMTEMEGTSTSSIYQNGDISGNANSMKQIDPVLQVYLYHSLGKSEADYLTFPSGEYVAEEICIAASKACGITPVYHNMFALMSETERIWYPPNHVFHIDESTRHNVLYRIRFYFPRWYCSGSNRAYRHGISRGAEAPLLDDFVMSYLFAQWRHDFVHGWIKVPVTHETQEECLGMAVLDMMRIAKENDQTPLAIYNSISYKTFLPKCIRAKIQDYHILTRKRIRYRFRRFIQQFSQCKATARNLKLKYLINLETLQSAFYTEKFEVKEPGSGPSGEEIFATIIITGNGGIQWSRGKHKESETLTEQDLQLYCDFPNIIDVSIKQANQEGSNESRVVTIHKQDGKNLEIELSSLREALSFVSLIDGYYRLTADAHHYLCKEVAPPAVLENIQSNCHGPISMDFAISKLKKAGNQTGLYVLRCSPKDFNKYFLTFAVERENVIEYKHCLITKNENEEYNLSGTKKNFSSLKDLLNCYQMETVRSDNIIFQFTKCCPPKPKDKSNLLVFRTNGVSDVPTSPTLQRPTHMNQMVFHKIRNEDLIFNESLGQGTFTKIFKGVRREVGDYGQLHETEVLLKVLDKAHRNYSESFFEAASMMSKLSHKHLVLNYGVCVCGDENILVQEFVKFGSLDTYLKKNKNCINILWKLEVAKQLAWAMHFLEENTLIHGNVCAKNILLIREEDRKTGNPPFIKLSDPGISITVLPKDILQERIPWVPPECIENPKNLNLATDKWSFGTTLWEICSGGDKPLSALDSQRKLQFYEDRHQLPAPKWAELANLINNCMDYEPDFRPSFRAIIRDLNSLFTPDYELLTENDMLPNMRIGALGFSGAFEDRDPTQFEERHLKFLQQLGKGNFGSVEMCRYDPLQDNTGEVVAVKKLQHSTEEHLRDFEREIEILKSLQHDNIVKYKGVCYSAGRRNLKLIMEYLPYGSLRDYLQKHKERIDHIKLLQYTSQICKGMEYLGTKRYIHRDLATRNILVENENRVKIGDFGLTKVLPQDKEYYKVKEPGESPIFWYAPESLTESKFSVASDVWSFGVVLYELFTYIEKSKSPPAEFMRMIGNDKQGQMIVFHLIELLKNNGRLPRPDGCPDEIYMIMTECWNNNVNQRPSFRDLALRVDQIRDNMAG
Cytochrome P450 2C19, sequence (P33261 whole entry): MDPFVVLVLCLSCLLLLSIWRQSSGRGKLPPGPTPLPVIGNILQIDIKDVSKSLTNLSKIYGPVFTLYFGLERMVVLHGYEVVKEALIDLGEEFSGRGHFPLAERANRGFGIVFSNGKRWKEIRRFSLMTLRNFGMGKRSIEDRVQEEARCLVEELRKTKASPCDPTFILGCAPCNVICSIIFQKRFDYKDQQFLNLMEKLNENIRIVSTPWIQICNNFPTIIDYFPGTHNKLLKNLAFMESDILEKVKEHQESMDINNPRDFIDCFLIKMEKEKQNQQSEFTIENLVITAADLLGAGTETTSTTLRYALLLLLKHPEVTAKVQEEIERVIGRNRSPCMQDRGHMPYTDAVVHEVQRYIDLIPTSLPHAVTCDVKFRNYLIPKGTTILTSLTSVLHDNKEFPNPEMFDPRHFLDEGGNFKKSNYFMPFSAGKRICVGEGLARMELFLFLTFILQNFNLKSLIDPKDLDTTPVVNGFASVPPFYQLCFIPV
Tyrosine-protein kinase Lyn, sequence (P07948 whole entry): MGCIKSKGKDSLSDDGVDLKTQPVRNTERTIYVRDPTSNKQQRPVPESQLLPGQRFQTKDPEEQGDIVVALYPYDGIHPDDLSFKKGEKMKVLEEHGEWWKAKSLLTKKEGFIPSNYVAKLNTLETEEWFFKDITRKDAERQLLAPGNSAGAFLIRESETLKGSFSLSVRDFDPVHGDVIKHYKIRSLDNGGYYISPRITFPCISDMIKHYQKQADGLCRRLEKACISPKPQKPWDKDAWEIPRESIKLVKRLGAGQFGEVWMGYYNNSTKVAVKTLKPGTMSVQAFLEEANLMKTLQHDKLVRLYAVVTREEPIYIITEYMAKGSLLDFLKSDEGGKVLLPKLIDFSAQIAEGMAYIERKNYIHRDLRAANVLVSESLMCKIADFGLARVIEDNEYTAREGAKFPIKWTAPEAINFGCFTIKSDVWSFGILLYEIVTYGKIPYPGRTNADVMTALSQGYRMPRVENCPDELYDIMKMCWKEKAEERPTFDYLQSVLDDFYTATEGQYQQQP

## Cc1cnc(Nc2ccc(N3CCC(N(C)CCO)CC3)c(F)c2)nc1-c1cnn(C(C)C)c1
MV4-11 [1]
  pIC50: 8.28
[2]
  Activity: 0%
[3]
  Activity: 36%
[4]
  AUCt: 2552 ng·h/mL
[5]
  pIC50: 7.77
JAK3/JAK1 [6]
  pIC50: 6.95
MDA-MB-231
  Activity: Active
NCI-H460
  Activity: Active
JAK3/JAK1 [7]
  pIC50: 6.24
Cytochrome P450 2C19
  pIC50: 4.13
[8]
  half-life: 4.81 h
[9]
  half-life: 6.42 h
[10]
  half-life: 23.1 h
[11]
  CLH: 1.8 µL/min/mg
MV4-11 [12]
  inhibition: Dose-dependent effect
MV4-11 [13]
  Activity: 15.4%
MV4-11 [14]
  Activity: 29.65%
MV4-11 [15]
  Activity: 12.84%
MV4-11 [16]
  viability at 0.4 µM: 51.2%
MV4-11 [17]
  Activity: 21.2%
MV4-11 [18]
  Activity: 26.5%
MV4-11 [19]
  Activity: 1.04%
MV4-11 [20]
  inhibition in vivo at 60 mg/kg: 93%
[21]
  survival at 432 h: 100%
